The target of experiment [1] is T1, 5-lipoxygenase (Rattus norvegicus, UniProt P12527).
T1 construct: endogenous in cells; host or cells: RBL-1 cells (rat basophilic leukemia)
T1 sequence (P12527 1-673): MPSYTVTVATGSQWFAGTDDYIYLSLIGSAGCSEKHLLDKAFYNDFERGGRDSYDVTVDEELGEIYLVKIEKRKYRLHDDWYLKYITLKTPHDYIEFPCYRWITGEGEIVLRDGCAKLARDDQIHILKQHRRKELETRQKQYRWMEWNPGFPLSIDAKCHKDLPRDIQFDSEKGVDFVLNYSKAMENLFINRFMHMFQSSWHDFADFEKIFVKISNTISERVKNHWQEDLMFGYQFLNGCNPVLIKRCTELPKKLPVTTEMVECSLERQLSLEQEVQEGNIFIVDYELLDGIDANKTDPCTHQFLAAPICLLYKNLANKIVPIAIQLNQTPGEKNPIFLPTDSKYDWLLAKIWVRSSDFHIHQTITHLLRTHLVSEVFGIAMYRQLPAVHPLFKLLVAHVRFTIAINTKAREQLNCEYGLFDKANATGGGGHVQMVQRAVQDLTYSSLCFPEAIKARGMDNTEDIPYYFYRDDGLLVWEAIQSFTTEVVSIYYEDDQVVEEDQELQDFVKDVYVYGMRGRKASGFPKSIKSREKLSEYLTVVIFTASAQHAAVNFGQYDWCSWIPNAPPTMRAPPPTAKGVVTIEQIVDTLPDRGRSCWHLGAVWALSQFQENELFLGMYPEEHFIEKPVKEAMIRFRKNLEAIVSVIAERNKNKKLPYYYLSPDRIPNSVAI
Kind of experiment: Inhibition of 5-lipoxygenase in RBL-1-cells. In kind it is cell-based. The note with it: 20 μM [14C]-arachidonic acid, 20 μM calcium ionophore A 23 187, 10 minutes. On the procedure:
To determine the inhibition of 5-lipoxygenase, rat basophilic leukemia cells (RBL-1-cells) were cultured in vitro, harvested by centrifugation, washed with 50 mM potassium phosphate buffer of pH 7.4, and then suspended in this buffer at 1×10^7 cells/ml. Indomethacin (10 μM) and calcium chloride (2 mM) were added to 1 ml portions of this suspension, and then the mixture was incubated either in the presence of a compound according to the invention in a concentration range of from 0,1 μM to 100 μM or in the presence of a solvent (ethanol and/or dimethyl sulfoxide) for 3 minutes and thereafter with 20 μM of [^14 C]-arachidonic acid and 20 μM of calcium ionophore A 23 187 for 10 minutes. The reaction was stopped by adding 20 μl of glacial acetic acid, and then the mixture was extracted with ethyl acetate to isolate the metabolites of arachidonic acid formed by the enzymatic action of 5-lipoxygenase. These were separated by thin layer chromatography using a solvent mixture known to be suitable for lipoxygenase products [c.f. Jakschik et al., Biochem. Biophys. Res. Commun. 102, 624 (1981)].
The distribution of radioactivity among the different metabolites of arachidonic acid was measured using a TLC Linear Analyzer. By correlating the percentage amounts of the products formed under the action of 5-lipoxygenase (5HETE, isomers of LTB4) in the absence as well as in the presence of different concentrations of compounds according to the invention, the IC50 -values, i.e. the concentrations which cause a 50% inhibition of 5-lipoxygenase, were determined graphically from semilogarithmic plots.

Experiment [2] deals with bronchoconstriction elicited by ovalbumin. In words: Allergen-induced bronchoconstriction in guinea pigs (Konzett-Rossler). It counts as in vivo, guinea pig. The note with it: Cavia porcellus, 1 h; oral, 60 minutes before ovalbumin (0.2 mg/kg intravenous); passively sensitized guinea pigs; read-out: ED40-Value (40% average inhibition of the bronchoconstriction elicited by ovalbumin). On the procedure: The anti-asthmatic effect of compounds according to the invention was tested in anesthetized and ventilated guinea pigs. To induce an asthmatic reaction, the animals were passively sensitized by a single intraperitoneal injection of anti-ovalbumin serum. After 48 hours, the asthmatic reaction was elicited by intravenous challenge with 0.2 mg/kg of ovalbumin. The immediately resulting bronchoconstriction was measured as an increase in intratracheal pressure. Effects caused by histamine, serotonin and sympathic counterreaction were eliminated by intravenous pretreatment with 2.15 mg/kg of mepyramine, 46.4 μg/kg of propranolol, 4.64 mg/kg of atropine and 1 mg/kg of methysergide, all administered 5 minutes before challenge. Compounds according to the invention were administered orally 60 minutes before the administration of ovalbumin. The following […] for the inhibition of the bronchoconstriction elicited by ovalbumin, i.e. the effective doses causing a 40% average inhibition of the bronchoconstriction, were determined: […]

The target in experiment [3] is T1, 5-lipoxygenase. Kind of experiment: Inhibition of Cell-free 5-lipoxygenase from RBL-1-cells (polarographic, 10,000 × g supernatant). In kind it is biochemical. Particulars: 10,000 × g supernatant of homogenized RBL-1-cells; arachidonic acid 75 μM; 35° C.; calculated IC50. On the procedure:
Cell-free 5-lipoxygenase was polarographically measured from 10,000 × g supernatant of homogenized rat basophilic leucemia cells (M. Haurand & L. Flohe in Biol. Chem. Hoppe-Seyler 369, 133 to 142 (1988)). After preincubation of the 10,000 × g supernatant with arachidonic acid (75 μM), ATP (adenosine triphosphate; 4 mM), reduced glutathione (4 mM), and either a compound according to the invention (0.1 to 100 μM) or a solvent (ethanol and/or dimethyl sulfoxide) at 35° C. for 5 minutes, the lipoxygenase reaction was initiated by addition of calcium chloride (3 mM) and simultaneously recorded.
The activity of 5-lipoxygenase was determined from the difference in the pO2 -decrease before and after addition of calcium chloride. The evaluation included the initial rate of the reaction after the lag-phase as well as the duration of the lag-phase. In the concentration range of from 3 to 50 μM, the test substances induced lag-phases between 20 and 60 seconds.

The subject of experiment [4] is 5-lipoxygenase. Kind of experiment: Inhibition of 5-lipoxygenase in Rat Blood After Oral Administration (ex vivo iLTB4-formation). The note with it: male Wistar rats, one hour after administration. As to the method:
The bioavailability of the compounds of formula I as 5-lipoxygenase inhibitors was characterized by means of an ex vivo biochemical assay method described by Tateson et al. in Brit. J. Pharmacol. 94, 528 (1988): A compound of formula I was orally administered to male rats (Wistar strain) at a dose of 21.5 mg/kg. After lethal CO2 -narcosis one hour after administration, the rats were bled by heart puncture with added heparin as an anticoagulant. Aliquots of the whole blood were incubated at 37° C. for 30 minutes in a water bath with calcium ionophore A 23 187 at an end concentration of 15 μg/ml. At the end of the incubation, the samples were centrifuged, and the concentration of the immunoreactive LTB4 (iLTB4) in aliquots of cell-free plasma was determined by radioimmunoassay (3H-LTB4 -RIA, Amersham). To enable calculation of the inhibition in percent of ex vivo iLTB4 -formation in whole rat blood treated with a compound according to the invention, rats orally treated with an appropriate vehicle solution were included in all experiments, and aliquots of their blood were run in parallel and were processed in the same way as described. The average iLTB4 -content of the plasma of the vehicletreated rats served as a 100% value. The activity in percent of the ex vivo iLTB4 -formation after oral administration of a compound according to the invention was calculated by dividing the average value of the iLTB4 -contents in ng iLTB4 /ml of the group treated with a compound according to the invention by the average value of the iLTB4 -contents in ng iLTB4 /ml of the vehicle treated group and subsequent multiplication by a factor of 100. The respective inhibition in percent was calculated by subtracting the activity in percent from 100.

Each structure is given as a SMILES string.

Usually IC50 stands for the concentration at which inhibition is half-maximal. Take `CC(=O)N(O)Cc1ccc(C(O)C#Cc2ccccc2)cc1` (single isomer, unassigned; (+)) [Example 2, (+)-N-Hydroxy-N-[4-[1-hydroxy-3-phenyl-prop-2-yn-1-yl]benzyl]acetamide]: at 5-lipoxygenase [1], the IC50 amounted to 4 µM.
In the case of `CC(=O)N(O)Cc1ccc(C(O)C#Cc2ccccc2)cc1` (single isomer, unassigned; (-)) [Example 3, (-)-N-Hydroxy-N-[4-[1-hydroxy-3-phenyl-prop-2-yn-1-yl]benzyl]acetamide], the IC50 on 5-lipoxygenase [1] is 5 µM. Moreover, in experiment [2], the ED40 was 9 mg/kg.
Turning to `CC(=O)OC(C#Cc1ccccc1)c1ccc(CN(O)C(C)=O)cc1` (stereo not shown) [Example 4, N-Hydroxy-N-[4-[1-acetoxy-3-phenyl-prop-2-yn-1-yl]benzyl]acetamide], the figures for the IC50 at 5-lipoxygenase [1] and on 5-lipoxygenase [3] were 4 µM and 9 µM, respectively.
The corresponding values for `CCOC(C#Cc1ccccc1)c1ccc(CN(O)C(C)=O)cc1` (stereo not shown) [Example 5] are 4 µM and 5 µM.
Consider `CC(=O)N(O)C(C)c1ccc(C(O)C#Cc2ccccc2)cc1` (stereo not shown) [Example 6, N-Hydroxy-N-[1-[4-(1-hydroxy-3-phenyl-prop-2-yn-1-yl)phenyl]ethyl]acetamide], for which the IC50 on 5-lipoxygenase [3] is 8 µM.
Consider `CC(=O)N(O)Cc1ccc(C(O)C#Cc2ccccc2Cl)cc1` (stereo not shown) [Example 9, N-Hydroxy-N-[4-[1-hydroxy-3-(2-chlorophenyl)prop-2-yn-1-yl]benzyl]acetamide], for which, on 5-lipoxygenase [1], the IC50 was determined as 4 µM.
On to `CC(=O)N(O)Cc1ccc(C(O)C#Cc2cccc(Cl)c2)cc1` (stereo not shown) [Example 10, N-Hydroxy-N-[4-[1-hydroxy-3-(3-chlorophenyl)prop-2-yn-1-yl]benzyl]acetamide], for which, at 5-lipoxygenase [1], the IC50 stood at 4 µM. Further, in the experiment on 5-lipoxygenase [4] (21.5 mg/kg oral), the “Inhibition [%] of ex vivo iLTB4-formation” value (“Inhibition [%]” for short) is given as 75%.
Turning to `CC(=O)N(O)Cc1ccc(C(O)C#Cc2ccc(Cl)cc2)cc1` (stereo not shown) [Example 11, N-Hydroxy-N-[4-[1-hydroxy-3-(4-chlorophenyl)prop-2-yn-1-yl]benzyl]acetamide], the IC50 at 5-lipoxygenase [1] was determined as 8 µM. The “Inhibition [%]” value with 5-lipoxygenase [4] (dose 10 mg/kg, oral) was 95%.
Regarding `COc1cccc(C#CC(O)c2ccc(CN(O)C(C)=O)cc2)c1` (stereo not shown) [Example 13, N-Hydroxy-N-[4-[1-hydroxy-3-(3-methoxyphenyl)prop-2-yn-1-yl]benzyl]acetamide], the IC50 at 5-lipoxygenase [1] and on 5-lipoxygenase [3] was 3 µM throughout.
For the compound `CC(=O)N(O)Cc1ccc(C(O)C#Cc2cccc3ccccc23)cc1` (stereo not shown) [Example 15, N-Hydroxy-N-[4-[1-hydroxy-3-(1-naphthyl)prop-2-yn-1-yl]benzyl]acetamide], the IC50 was 3 µM on 5-lipoxygenase [1] and 7 µM at 5-lipoxygenase [3]. The “Inhibition [%]” value in the experiment with 5-lipoxygenase [4] (21.5 mg/kg oral) amounted to 71%.
For `CC(=O)N(O)Cc1ccc(C(O)C#Cc2ccsc2)cc1` (stereo not shown) [Example 17, N-Hydroxy-N-[4-[1-hydroxy-3-(3-thienyl)prop-2-yn-1-yl]benzyl]acetamide], the concentration for half-maximal inhibition (IC50) at 5-lipoxygenase [1] worked out at 5 µM. Also, the “Inhibition [%]” value in the experiment on 5-lipoxygenase [4] (21.5 mg/kg oral) is recorded as 77%.
For `CC(=O)N(O)Cc1cccc(C(O)C#Cc2ccccc2)c1` (stereo not shown) [Example 19, N-Hydroxy-N-[3-[1-hydroxy-3-phenyl-prop-2-yn-1-yl]benzyl]acetamide], the IC50 on 5-lipoxygenase [1] is 3 µM.
`CC(=O)N(O)Cc1cccc(C(O)C#Cc2ccsc2)c1` (stereo not shown) [Example 20, N-Hydroxy-N-[3-[1-hydroxy-3-(3-thienyl)prop-2-yn-1-yl]benzyl]acetamide]: the IC50 on 5-lipoxygenase [3] was 7 µM.
On to `NC(=O)N(O)Cc1ccc(C(O)C#Cc2ccccc2Cl)cc1` (stereo not shown) [Example 22, N-Hydroxy-N-[4-[1-hydroxy-3-(2-chlorophenyl)prop-2-yn-1-yl]benzyl]urea], for which the IC50 at 5-lipoxygenase [1] is 4 µM; at 5-lipoxygenase [3], 8 µM. For the same compound, the “Inhibition [%]” value in the experiment on 5-lipoxygenase [4] (dose 10 mg/kg, oral) is given as 83%.
Consider `NC(=O)N(O)Cc1ccc(C(O)C#Cc2cccc(Cl)c2)cc1` (stereo not shown) [Example 23, N-Hydroxy-N-[4-[1-hydroxy-3-(3-chlorophenyl)prop-2-yn-1-yl]benzyl]urea], for which the 50% inhibitory concentration (IC50) at 5-lipoxygenase [1] was found to be 4 µM. Further, in experiment [2], the ED40 was 18 mg/kg.
For the compound `NC(=O)N(O)Cc1ccc(C(O)C#Cc2ccc(Cl)cc2)cc1` (stereo not shown) [Example 24, N-Hydroxy-N-[4-[1-hydroxy-3-(4-chlorophenyl)prop-2-yn-1-yl]benzyl]urea], at 5-lipoxygenase [1], the IC50 came out at 3 µM.
`NC(=O)N(O)Cc1ccc(C(O)C#Cc2cccs2)cc1` (stereo not shown) [Example 27, N-Hydroxy-N-[4-[1-hydroxy-3-(2-thienyl)prop-2-yn-1-yl]benzyl]urea]: on 5-lipoxygenase [1], the IC50 is 3 µM.
Consider `NC(=O)N(O)Cc1cccc(C(O)C#Cc2ccccc2)c1` (stereo not shown) [Example 29, N-Hydroxy-N-[3-[1-hydroxy-3-phenyl-prop-2-yn-1-yl]benzyl]urea], for which the IC50 at 5-lipoxygenase [1] worked out at 4 µM.
For `CCOC(C#Cc1ccc(OC)c(OC)c1)c1ccc(CN(O)C(C)=O)cc1` (stereo not shown) [Example 33, N-Hydroxy-N-[4-[1-ethoxy-3-(3,4-dimethoxyphenyl)prop-2-yn-1-yl]benzyl]acetamide], the IC50 was 5 µM at 5-lipoxygenase [1] and 6 µM on 5-lipoxygenase [3].
For the compound `CCOC(C#Cc1cccs1)c1ccc(CN(O)C(N)=O)cc1` (stereo not shown) [Example 35, N-Hydroxy-N-[4-[1-ethoxy-3-(2-thienyl)prop-2yn-1-yl]benzyl]urea], the IC50 at 5-lipoxygenase [1] is 3 µM; on 5-lipoxygenase [3], 5 µM.

(Values after patent publication US5326902A, “Oxyalkyne compounds, pharmaceutical compositions containing them and processes for preparing such compounds and compositions” (Gruenenthal GmbH, priority 1992, dated 1994).)
